Experiments:
CTLL2 = experiment: Cellular screening, CTLL2 cells, Alamar Blue; assay type: cell-based; settings: Mus musculus, CTLL-2, read-out: CTLL2 IC50_nM
Outline: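 CTLL2 cells in late log phase incubated with compound for 40 hr at 37° C, 5% CO2. Viability then read at 544 nm after a further 4-6 hours with Alamar Blue.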

human JAK3 = target: T1, human JAK3 (Homo sapiens, UniProt P52333); experiment: Alphascreen tyrosine kinase enzyme assay, JAK3 kinase domain; assay type: biochemical; settings: read-out: JAK3 IC50_nM
T1 construct: The kinase domain of human JAK3 was amplified; GST (N); made in house; host or cells: Sf9 insect cells (baculovirus)
Outline: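 GST-affinity-purified human JAK3 kinase domain (baculovirus/Sf9) was pre-incubated 20 min with compound ([…]) in HEPES pH 7.5 buffer with MgCl2, vanadate and Tween 20. Biotinylated peptide substrate ([…]) and ATP were then added; phosphotyrosine was detected by AlphaScreen PY100 acceptor and streptavidin donor beads after 2–3 h.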

human JAK1 = target: T2, human JAK1 (Homo sapiens, UniProt P23458); experiment: Alphascreen tyrosine kinase enzyme assay, JAK1 kinase domain; assay type: biochemical; settings: read-out: JAK1 IC50_nM
T2 construct: The kinase domain of human JAK1 was amplified; GST (N); made in house; host or cells: Sf9 insect cells (baculovirus)

BaF3 wild-type cells = experiment: Cellular screening, BaF3 wild-type cells, Alamar Blue; assay type: cell-based; settings: Mus musculus, 40 hr, read-out: BAF3wt IC50_nM
Outline: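 Cells were cultured in DMEM with 10% FCS and 10% WEHI 3B conditioned medium, and suspensions were prepared at 1.1× final (50,000–200,000 cells/mL). Compounds from 20 μM dilution plates were added at 10× final and incubated for 40 hr at 37° C, 5% CO2. Alamar Blue was then added for 4–6 hours and read at 544 nm.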

human JAK2 = target: T3, human JAK2 (Homo sapiens, UniProt O60674); experiment: Alphascreen tyrosine kinase enzyme assay, JAK2 kinase domain; assay type: biochemical; settings: read-out: JAK2 IC50_nM
T3 construct: The kinase domain of human JAK2 was amplified; GST (N); made in house; host or cells: Sf9 insect cells (baculovirus)
Outline: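 JAK2 kinase domain expressed in baculovirus/Sf9 and glutathione-affinity purified. Compounds (final […]) pre-incubated 20 min with enzyme in 10 mM HEPES pH 7.5, MgCl2, NaCl, vanadate, 0.1% Tween 20.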

T3 sequence (O60674 849-1124 limits assumed): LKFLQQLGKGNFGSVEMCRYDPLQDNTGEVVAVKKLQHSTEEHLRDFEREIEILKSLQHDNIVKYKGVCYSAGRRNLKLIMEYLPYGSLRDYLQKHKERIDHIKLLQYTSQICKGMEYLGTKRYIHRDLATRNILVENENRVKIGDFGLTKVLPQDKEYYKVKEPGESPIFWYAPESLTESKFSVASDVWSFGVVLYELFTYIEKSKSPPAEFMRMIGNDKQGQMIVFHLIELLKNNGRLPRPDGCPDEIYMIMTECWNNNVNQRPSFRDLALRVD
T2 sequence (P23458 875-1153 limits assumed): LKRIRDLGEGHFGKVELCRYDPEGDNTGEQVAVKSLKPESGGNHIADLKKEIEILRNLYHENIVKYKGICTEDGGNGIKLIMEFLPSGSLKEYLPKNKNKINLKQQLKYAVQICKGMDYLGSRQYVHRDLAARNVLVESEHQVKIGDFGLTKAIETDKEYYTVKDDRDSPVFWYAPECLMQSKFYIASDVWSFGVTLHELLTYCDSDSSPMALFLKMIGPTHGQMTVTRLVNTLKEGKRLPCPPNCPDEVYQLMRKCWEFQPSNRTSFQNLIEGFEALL
T1 sequence (P52333 822-1111 limits assumed): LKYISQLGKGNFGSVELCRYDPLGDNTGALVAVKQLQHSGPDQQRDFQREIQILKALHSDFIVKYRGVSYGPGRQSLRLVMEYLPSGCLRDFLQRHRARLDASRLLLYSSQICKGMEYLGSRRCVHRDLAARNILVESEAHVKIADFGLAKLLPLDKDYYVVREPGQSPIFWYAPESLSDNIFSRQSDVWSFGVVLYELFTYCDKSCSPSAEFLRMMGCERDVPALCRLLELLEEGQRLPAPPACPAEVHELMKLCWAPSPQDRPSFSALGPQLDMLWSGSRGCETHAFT

Compound | IC50 (CTLL2) | IC50 (human JAK3) | IC50 (human JAK1) | IC50 (BaF3 wild-type cells) | IC50 (human JAK2)
C=CC(=O)Nc1ccc(Sc2nc(Nc3ccc(OCCCN(CC)CC)cc3)ncc2C)cc1 [Compound 291, N-(4-(2-(4-(3-(diethylao)propoxy)phenylao)-5-methylpyrimidin-4-ylthio)phenyl)acrylamide] | < 1000 nM | < 100 nM | > 1000 nM | < 5000 nM | > 1000 nM
C=CC(=O)Nc1ccc(Sc2nc(Nc3ccc(OC)c(NS(C)(=O)=O)c3)ncc2C)cc1 [Compound 293, N-(4-(2-(4-methoxy-3-(methylsulfonamido)phenylao)-5-methylpyrimidin-4-ylthio)phenyl)acrylamide] | < 1000 nM | < 100 nM | > 1000 nM | < 5000 nM | > 1000 nM
C=CC(=O)Nc1ccc(Sc2nc(Nc3ccc(N4CCC(O)C4)cc3)ncc2C)cc1 (centres unmarked) [Compound 295, N-(4-(2-(4-(3-hydroxypyrrolidin-1-yl)phenylao)-5-methylpyrimidin-4-ylthio)phenyl)acrylamide] | < 1000 nM | < 100 nM | > 1000 nM | > 20000 nM | > 1000 nM
C=CC(=O)Nc1ccc(Sc2nc(Nc3ccc(NS(C)(=O)=O)c(OC)c3)ncc2C)cc1 [Compound 296, N-(4-(2-(3-methoxy-4-(methylsulfonamido)phenylao)-5-methylpyrimidin-4-ylthio)phenyl)acrylamide] | < 1000 nM | < 100 nM | > 1000 nM | < 5000 nM | > 1000 nM
C=CC(=O)Nc1ccc(Sc2nc(Nc3ccc(N4CCCC(O)C4)cc3)ncc2C)cc1 (centres unmarked) [Compound 299, N-(4-(2-(4-(3-hydroxypiperidin-1-yl)phenylao)-5-methylpyrimidin-4-ylthio)phenyl)acrylamide] | < 1000 nM | < 100 nM | > 1000 nM | < 20000 nM | > 1000 nM
C=CC(=O)Nc1ccc(Sc2nc(Nc3ccc(N4CCOCC4)cc3)ncc2Br)cc1 [Compound 306, N-(4-(5-bromo-2-(4-morpholinophenylao)pyrimidin-4-ylthio)phenyl)acrylamide] | < 1000 nM | < 100 nM | > 1000 nM | > 20000 nM | > 1000 nM
O=C(/C=C/Cl)Nc1cccc(Sc2ccnc(Nc3ccc(N4CCOCC4)cc3)n2)c1 [Compound 340, (E)-3-chloro-N-(3-(2-(4-morpholinophenylao)pyrimidin-4-ylthio)phenyl)acrylamide] | < 5000 nM | < 100 nM | > 1000 nM | < 5000 nM | > 1000 nM
O=C(/C=C\Cl)Nc1ccc(Sc2ccnc(Nc3ccc(N4CCOCC4)cc3)n2)cc1 [Compound 346, (Z)-3-chloro-N-(4-(2-(4-morpholinophenylao)pyrimidin-4-ylthio)phenyl)acrylamide] | < 20000 nM | < 100 nM | > 1000 nM | < 1000 nM | > 1000 nM
C=CC(=O)Nc1ccc(Sc2ccnc(Nc3ccc(S(N)(=O)=O)c(OC)c3)n2)cc1 [Compound 374, N-(4-(2-(3-methoxy-4-sulfamoylphenylao)pyrimidin-4-ylthio)phenyl)acrylamide] | < 20000 nM | < 100 nM | > 1000 nM | < 5000 nM | > 1000 nM
Cc1cnc(Nc2ccc(N3CCOCC3)cc2)nc1Sc1ccc(NC(=O)/C=C\C(=O)O)cc1 [Compound 380, (Z)-4-(4-(5-methyl-2-(4-morpholinophenylao)pyrimidin-4-ylthio)phenylao)-4-oxobut-2-enoic acid] | > 20000 nM | < 100 nM | > 1000 nM | > 20000 nM | > 1000 nM
Cc1cnc(Nc2ccc(N3CCOCC3)cc2)nc1Sc1ccc(N2C(=O)C=C(Br)C2=O)cc1 [Compound 382, 3-bromo-1-(4-(5-methyl-2-(4-morpholinophenylao)pyrimidin-4-ylthio)phenyl)-1H-pyrrole-2,5-dione] | < 20000 nM | < 100 nM | > 1000 nM | < 20000 nM | > 1000 nM
CCOC(=O)/C=C/C(=O)Nc1ccc(Sc2nc(Nc3ccc(N4CCOCC4)cc3)ncc2C)cc1 [Compound 385, (E)-ethyl 4-(4-(5-methyl-2-(4-morpholinophenylao)pyrimidin-4-ylthio)phenylao)-4-oxobut-2-enoate] | < 5000 nM | < 100 nM | > 1000 nM | > 20000 nM | > 1000 nM
CNC(=O)/C=C\C(=O)Nc1ccc(Sc2nc(Nc3ccc(N4CCOCC4)cc3)ncc2C)cc1 [Compound 389, N1-methyl-N4-(4-(5-methyl-2-(4-morpholinophenylao)pyrimidin-4-ylthio)phenyl)maleamide] | < 1000 nM | < 100 nM | > 1000 nM | < 20000 nM | > 1000 nM
